According to PubChem BioAssay AID1963851 (Molecular Pharmacology Branch, DTP, NCI, 2024):
pIC50: −log10 of the molar value.

Test system: 188146-221-R-J1-PDC complex spheroid viability
Test: Anticancer human tumor 188146-221-R-J1-PDC patient-derived colon adenocarcinoma cell line growth inhibition [POLQ]
Settings: for pIC50: curve of first compound; for viability, T/C: stronger effect = lower value
In short: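 Patient-derived tumour cells were co-cultured with HUVEC and mesenchymal stem cells as multicellular spheroids at 37 °C. They were treated with POLQ inhibitors (novobiocin, ART-558, RP6685) alone or combined with other agents. Top concentrations were at or near clinical Cmax (otherwise 10 microM; SN-38 at 1 microM), decreasing in half-log steps.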

[1] = second compound 0.0316 µM, first compound 0.0316 µM
[2] = second compound 0.0316 µM, first compound 0.1 µM
[3] = second compound 0.0316 µM, first compound 0.316 µM
[4] = second compound 0.0316 µM, first compound 1 µM
[5] = second compound 0.0316 µM, first compound 3.16 µM
[6] = second compound 0.0316 µM, first compound 10 µM
[7] = second compound 0.1 µM, first compound 0.0316 µM
[8] = second compound 0.1 µM, first compound 0.1 µM
[9] = second compound 0.1 µM, first compound 0.316 µM
[10] = second compound 0.1 µM, first compound 1 µM
[11] = second compound 0.1 µM, first compound 3.16 µM
[12] = second compound 0.1 µM, first compound 10 µM
[13] = second compound 0.316 µM, first compound 0.0316 µM
[14] = second compound 0.316 µM, first compound 0.1 µM
[15] = second compound 0.316 µM, first compound 0.316 µM
[16] = second compound 0.316 µM, first compound 1 µM
[17] = second compound 0.316 µM, first compound 3.16 µM
[18] = second compound 0.316 µM, first compound 10 µM
[19] = second compound 1 µM, first compound 0.0316 µM
[20] = second compound 1 µM, first compound 0.1 µM
[21] = second compound 1 µM, first compound 0.316 µM
[22] = second compound 1 µM, first compound 1 µM
[23] = second compound 1 µM, first compound 3.16 µM
[24] = second compound 1 µM, first compound 10 µM
[25] = second compound 3.16 µM, first compound 0.0316 µM
[26] = second compound 3.16 µM, first compound 0.1 µM
[27] = second compound 3.16 µM, first compound 0.316 µM
[28] = second compound 3.16 µM, first compound 1 µM
[29] = second compound 3.16 µM, first compound 3.16 µM
[30] = second compound 3.16 µM, first compound 10 µM
[31] = second compound 10 µM, first compound 0.0316 µM
[32] = second compound 10 µM, first compound 0.1 µM
[33] = second compound 10 µM, first compound 0.316 µM
[34] = second compound 10 µM, first compound 1 µM
[35] = second compound 10 µM, first compound 3.16 µM
[36] = second compound 10 µM, first compound 10 µM
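Also: spheroids exposed to compounds for seven days.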
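For viability, T/C in this document: 100% = DMSO vehicle control viability.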

With `COc1cccc2c1C(=O)c1c(O)c3c(c(O)c1C2=O)CC(O)(C(=O)CO)CC3OC1CC(N)C(O)C(C)O1` (stereo unspecified) + Cc1cccc(N(C)C(=O)C2C(O)CCN2c2nc(C)cc(C(F)(F)F)c2C#N)c1 the pIC50 (second compound 0.0316 µM) was 6.99, the pIC50 (second compound 0.1 µM) was 6.84 and the pIC50 (second compound 0.316 µM) was 6.93. The pIC50 (second compound 1 µM) was 6.93, the pIC50 (second compound 3.16 µM) was 7.01 and the pIC50 (second compound 10 µM) was 7.12. For the same molecule, the viability, T/C [1] was 83.8%, the viability, T/C [2] was 48% and the viability, T/C [3] was 31.3%. The viability, T/C [4] was 9.29%, the viability, T/C [5] was 0.34% and the viability, T/C [6] was 0.84%. The viability, T/C [7] was 75.1%, the viability, T/C [8] was 56.8% and the viability, T/C [9] was 34.5%. The viability, T/C [10] was 8.42%, the viability, T/C [11] was 0.28% and the viability, T/C [12] was 0.45%. It also gave a viability, T/C [13] of 81%, a viability, T/C [14] of 48.9% and a viability, T/C [15] of 36.7%. It also gave a viability, T/C [16] of 10%, a viability, T/C [17] of 0.19% and a viability, T/C [18] of 0.47%. It also gave a viability, T/C [19] of 74%, a viability, T/C [20] of 51% and a viability, T/C [21] of 32.6%. The viability, T/C [22] was 10.9%, the viability, T/C [23] was 0.17% and the viability, T/C [24] was 0.44%. The viability, T/C [25] was 69.8%, the viability, T/C [26] was 47.2% and the viability, T/C [27] was 29.8%. It also gave a viability, T/C [28] of 6.51%, a viability, T/C [29] of 0.32% and a viability, T/C [30] of 0.65%. For the same molecule, the viability, T/C [31] was 74.8%, the viability, T/C [32] was 39.5% and the viability, T/C [33] was 26.4%. The viability, T/C [34] was 3.83%, the viability, T/C [35] was 0.3% and the viability, T/C [36] was 0.64%.

`O=C(Nc1ccc(O)c(NS(=O)(=O)c2ccc(F)cc2)c1)c1ccc(-c2ccccc2)cc1` + COC1C(OC(N)=O)C(O)C(Oc2ccc3c(O)c(NC(=O)c4ccc(O)c(CC=C(C)C)c4)c(=O)oc3c2C)OC1(C)C was tested, and the pIC50 (second compound 0.0316 µM) was under 5.00, the pIC50 (second compound 0.1 µM) was under 5.00 and the pIC50 (second compound 0.316 µM) was under 5.00. It also gave a pIC50 (second compound 1 µM) of under 5.00, a pIC50 (second compound 3.16 µM) of under 5.00 and a pIC50 (second compound 10 µM) of under 5.00. For the same molecule, the viability, T/C [1] was 104%, the viability, T/C [2] was 95% and the viability, T/C [3] was 99.7%. For the same molecule, the viability, T/C [4] was 97.6%, the viability, T/C [5] was 86.5% and the viability, T/C [6] was 89%. For the same molecule, the viability, T/C [7] was 106%, the viability, T/C [8] was 104% and the viability, T/C [9] was 96.5%. For the same molecule, the viability, T/C [10] was 99.4%, the viability, T/C [11] was 98.8% and the viability, T/C [12] was 75.2%. It also gave a viability, T/C [13] of 95%, a viability, T/C [14] of 108% and a viability, T/C [15] of 101%. For the same molecule, the viability, T/C [16] was 100%, the viability, T/C [17] was 88.2% and the viability, T/C [18] was 69.4%. For the same molecule, the viability, T/C [19] was 102%, the viability, T/C [20] was 96.2% and the viability, T/C [21] was 105%. It also gave a viability, T/C [22] of 101%, a viability, T/C [23] of 94.4% and a viability, T/C [24] of 79.5%. It also gave a viability, T/C [25] of 105%, a viability, T/C [26] of 106% and a viability, T/C [27] of 108%. The viability, T/C [28] was 88.7%, the viability, T/C [29] was 97.4% and the viability, T/C [30] was 73.1%. It also gave a viability, T/C [31] of 96.9%, a viability, T/C [32] of 95.8% and a viability, T/C [33] of 113%. For the same molecule, the viability, T/C [34] was 102%, the viability, T/C [35] was 103% and the viability, T/C [36] was 83.3%.

In the case of `C#Cc1c(F)ccc2cc(O)cc(-c3ncc4c(N5CC6CCC(C5)N6)nc(OCC56CCCN5CC(F)C6)nc4c3F)c12` (stereo unspecified) + Cc1cccc(N(C)C(=O)C2C(O)CCN2c2nc(C)cc(C(F)(F)F)c2C#N)c1, the pIC50 (second compound 0.0316 µM) was under 5.00, the pIC50 (second compound 0.1 µM) was under 5.00 and the pIC50 (second compound 0.316 µM) was under 5.00. It also gave a pIC50 (second compound 1 µM) of under 5.00, a pIC50 (second compound 3.16 µM) of under 5.00 and a pIC50 (second compound 10 µM) of under 5.00. It also gave a viability, T/C [1] of 104%, a viability, T/C [2] of 105% and a viability, T/C [3] of 104%. The viability, T/C [4] was 97.9%, the viability, T/C [5] was 88.6% and the viability, T/C [6] was 90.6%. For the same molecule, the viability, T/C [7] was 101%, the viability, T/C [8] was 112% and the viability, T/C [9] was 101%. For the same molecule, the viability, T/C [10] was 95.5%, the viability, T/C [11] was 96% and the viability, T/C [12] was 92.6%. For the same molecule, the viability, T/C [13] was 108%, the viability, T/C [14] was 106% and the viability, T/C [15] was 96.9%. For the same molecule, the viability, T/C [16] was 85.3%, the viability, T/C [17] was 93.2% and the viability, T/C [18] was 84.1%. It also gave a viability, T/C [19] of 111%, a viability, T/C [20] of 101% and a viability, T/C [21] of 94.9%. The viability, T/C [22] was 93.4%, the viability, T/C [23] was 89.8% and the viability, T/C [24] was 85.5%. It also gave a viability, T/C [25] of 99.7%, a viability, T/C [26] of 98.2% and a viability, T/C [27] of 96.8%. The viability, T/C [28] was 74.9%, the viability, T/C [29] was 95.8% and the viability, T/C [30] was 98.2%. For the same molecule, the viability, T/C [31] was 107%, the viability, T/C [32] was 75% and the viability, T/C [33] was 99.8%. It also gave a viability, T/C [34] of 90%, a viability, T/C [35] of 88.6% and a viability, T/C [36] of 78.3%.
